{"source": "patent US20240336601A1", "about": "(Chulalongkorn University, priority 2020, published 2024)", "key": {"[1]": {"molecular_target": "T1, PD-1/PD-L1 interaction (Homo sapiens, UniProt Q9NZQ7)", "T1 construct": "expressed in transfected cells", "T1 sequence (Q9NZQ7 19-290)": "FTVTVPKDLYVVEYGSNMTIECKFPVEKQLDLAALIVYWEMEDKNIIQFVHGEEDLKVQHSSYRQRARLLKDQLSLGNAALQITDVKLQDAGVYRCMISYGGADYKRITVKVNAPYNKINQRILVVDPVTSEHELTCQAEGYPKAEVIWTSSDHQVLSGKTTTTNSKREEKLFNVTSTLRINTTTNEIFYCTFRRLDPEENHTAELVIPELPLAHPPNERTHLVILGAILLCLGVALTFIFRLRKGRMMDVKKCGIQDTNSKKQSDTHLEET", "assay": "PD-1/PD-L1 blockage cell-based bioassay (Jurkat NFAT luciferase / CHO-PDL1 co-culture)", "details": "Jurkat NFAT cells co-cultured with CHO-PDL1 cells, 6 h, luminescence", "procedure": "PD-1/PD-L1 Blockage Cell-Based Bioassay\nJurkat T cells expressing human PD-1 and luciferase gene reporter driven by TCR-mediated NFAT response element (Jurkat NFAT) were co-cultured with CHO-kl cells expressing human PD-L1 and surface-bound TCR activator (CHO-PDL1). […] CHO-PDL1 cells (20,000 cells/well) were seeded overnight. Compounds were added on CHO-PDL1 and incubated for 2 h at 37° C. Jurkat NFAT cells (20,000 cells/well) were diluted in RPMI assay medium (RPMI1640 with 1% FBS) and added into each well. After co-incubation for 6 h at 37° C., luminescence was determined by adding Bio-Glo™ Luciferase reagent (Promega) and measured with a luminescence plate reader. EC50 values were calculated from the four-parameter concentration-response curves."}, "[2]": {"molecular_target": "interaction between PD-1 and PD-L1 (Homo sapiens, UniProt Q9NZQ7)", "sequence (Q9NZQ7 19-238 limits assumed)": "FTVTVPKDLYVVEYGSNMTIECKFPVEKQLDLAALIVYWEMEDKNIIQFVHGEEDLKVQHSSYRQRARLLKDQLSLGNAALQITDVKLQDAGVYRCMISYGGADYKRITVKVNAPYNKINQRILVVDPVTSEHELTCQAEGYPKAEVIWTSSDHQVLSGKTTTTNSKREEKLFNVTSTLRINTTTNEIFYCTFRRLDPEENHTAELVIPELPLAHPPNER", "assay": "PD-1/PD-L1 protein-protein interaction assay (ALPHA)", "format": "binding", "details": "2 nM His-tagged human PD-L1, 0.6 nM PD-1-Fc, AlphaScreen"}}, "data": [{"compound": "COc1cc(-n2ncc3c(-c4cccc(-c5ccc(CN6CC(C(C)(C)O)C6)c(OC)n5)c4Cl)cccc32)cc(OC)c1CN1CC2(CCC(=O)N2)C1", "note": "[Example 140, 2-(4-(4-(2-chloro-3-(5-((3-(2-hydroxypropan-2-yl)azetidin-1-yl)methyl)-6-methoxypyridin-2-yl)phenyl)-1H-indazol-1-yl)-2,6-dimethoxybenzyl)-2,5-diazaspiro[3.4]octan-6-one]", "values": [{"measurement": "IC50", "setting": "[1]", "value": "201 to 2000", "unit": "nM"}, {"measurement": "IC50", "setting": "[2]", "value": "1 to 10", "unit": "nM"}]}, {"compound": "COc1cc(-n2ccc3c(-c4cccc(-c5ccc(CNC[C@@H]6CCC(=O)N6)c(OC)n5)c4Cl)cccc32)cc(OC)c1CN1CC[C@@H](NC(C)=O)C1", "note": "[Example 38]", "values": [{"measurement": "IC50", "setting": "[1]", "value": "> 2000", "unit": "nM"}, {"measurement": "IC50", "setting": "[2]", "value": "10 to 100", "unit": "nM"}]}, {"compound": "COc1cc(-n2ncc3c(-c4cccc(-c5ccc(CN[C@H]6C[C@@H](O)C6)c(OC)n5)c4Cl)cccc32)cc(OC)c1CN1CC(C)(C(=O)NC2CC2)C1", "note": "[Example 100, 1-(4-(4-(2-chloro-3-(5-(((cis-3-hydroxycyclobutyl)amino)methyl)-6-methoxypyridin-2-yl)phenyl)-1H-indazol-1-yl)-2,6-dimethoxybenzyl)-N-cyclopropyl-3-methylazetidine-3-carboxamide]", "values": [{"measurement": "IC50", "setting": "[1]", "value": "< 200", "unit": "nM"}, {"measurement": "IC50", "setting": "[2]", "value": "< 1", "unit": "nM"}]}, {"compound": "COc1cc(-n2ncc3c(-c4cccc(-c5ccc(CN6CC[C@@H](C(=O)O)C6)c(OC)n5)c4Cl)cccc32)cc(OC)c1CN1CC2(CNC(=O)C2)C1", "note": "[Example 130, (R)-1-((6-(2-chloro-3-(1-(3,5-dimethoxy-4-((7-oxo-2,6-diazaspiro[3.4]octan-2-yl)methyl)phenyl)-1H-indazol-4-yl)phenyl)-2-methoxypyridin-3-yl)methyl)pyrrolidine-3-carboxylic acid]", "values": [{"measurement": "IC50", "setting": "[1]", "value": "< 200", "unit": "nM"}, {"measurement": "IC50", "setting": "[2]", "value": "< 1", "unit": "nM"}]}, {"compound": "CCOC(=O)[C@@H](CO)NCc1c(OC)cc(-n2ncc3c(-c4cccc(-c5ccc(CNC[C@@H]6CCC(=O)N6)c(OC)n5)c4Cl)cccc32)cc1OC", "note": "[Example 147, Ethyl (2R)-2-[({4-[4-(2-chloro-3-{6-methoxy-5-[({[(2S)-5-oxopyrrolidin-2-yl]methyl)amino)methyl}pyridin-2-yl}phenyl)-1H-indazol-1-yl]-2,6-dimethoxyphenyl}methyl)amino]-3-hydroxypropanoate]", "values": [{"measurement": "IC50", "setting": "[1]", "value": "201 to 2000", "unit": "nM"}, {"measurement": "IC50", "setting": "[2]", "value": "1 to 10", "unit": "nM"}]}, {"compound": "COc1cc(-n2ncc3c(-c4cccc(Nc5nc(C(F)F)nc6cc(CN7CC[C@@H](C(=O)O)C7)cnc56)c4C)cccc32)cc(OC)c1CN1CC[C@@H](O)C1", "note": "[Example 165, (R)-1-((2-(difluoromethyl)-4-((3-(1-(4-(((R)-3-hydroxypyrrolidin-1-yl)methyl)-3,5-dimethoxyphenyl)-1H-indazol-4-yl)-2-methylphenyl)amino)pyrido[3,2-d]pyrimidin-7-yl)methyl)pyrrolidine-3-carboxylic acid]", "values": [{"measurement": "IC50", "setting": "[1]", "value": "< 200", "unit": "nM"}, {"measurement": "IC50", "setting": "[2]", "value": "< 1", "unit": "nM"}]}, {"compound": "COc1cc(-n2ncc3c(-c4cccc(Nc5nc(C(F)F)nc6cc(CN7CC[C@@H](O)C7)cnc56)c4C)cccc32)cc(OC)c1CN1CCC(C(=O)O)CC1", "note": "[Example 163, (R)-1-(4-(4-(3-((2-(difluoromethyl)-7-((3-hydroxypyrrolidin-1-yl)methyl)pyrido[3,2-d]pyrimidin-4-yl)amino)-2-methylphenyl)-1H-indazol-1-yl)-2,6-dimethoxybenzyl)piperidine-4-carboxylic acid]", "values": [{"measurement": "IC50", "setting": "[1]", "value": "201 to 2000", "unit": "nM"}, {"measurement": "IC50", "setting": "[2]", "value": "< 1", "unit": "nM"}]}, {"compound": "COc1cc(-n2ncc3c(-c4cccc(-c5ccc(CN[C@H]6C[C@@H](O)C6)c(OC)n5)c4Cl)cccc32)cc(OC)c1CN1CC(C)(C(N)=O)C1", "note": "[Example 105, 1-(4-(4-(2-chloro-3-(5-(((cis-3-hydroxycyclobutyl)amino)methyl)-6-methoxypyridin-2-yl)phenyl)-1H-indazol-1-yl)-2,6-dimethoxybenzyl)-3-methylazetidine-3-carboxamide]", "values": [{"measurement": "IC50", "setting": "[1]", "value": "< 200", "unit": "nM"}, {"measurement": "IC50", "setting": "[2]", "value": "< 1", "unit": "nM"}]}, {"compound": "COC(=O)[C@@H](CO)NCc1c(OC)cc(-n2ncc3c(-c4cccc(-c5ccc(CNC[C@@H]6CCC(=O)N6)c(OC)n5)c4Cl)cccc32)cc1OC", "note": "[Example 134, methyl (4-(4-(2-chloro-3-(6-methoxy-5-(((((S)-5-oxopyrrolidin-2-yl)methyl)amino)methyl)pyridin-2-yl)phenyl)-1H-indazol-1-yl)-2,6-dimethoxybenzyl)-D-serinate]", "values": [{"measurement": "IC50", "setting": "[1]", "value": "< 200", "unit": "nM"}, {"measurement": "IC50", "setting": "[2]", "value": "< 1", "unit": "nM"}]}, {"compound": "COc1cc(-n2ncc3c(-c4cccc(-c5ccc(CN6CC(C(C)(C)O)C6)c(OC)n5)c4Cl)cccc32)ncc1CNCCO", "note": "[Example 142, 2-(1-((6-(2-chloro-3-(1-(5-(((2-hydroxyethyl)amino)methyl)-4-methoxypyridin-2-yl)-1H-indazol-4-yl)phenyl)-2-methoxypyridin-3-yl)methyl)azetidin-3-yl)propan-2-ol]", "values": [{"measurement": "IC50", "setting": "[1]", "value": "< 200", "unit": "nM"}, {"measurement": "IC50", "setting": "[2]", "value": "< 1", "unit": "nM"}]}, {"compound": "COc1cc(-n2ncc3c(-c4cccc(-c5ccc(CN[C@H]6C[C@@H](O)C6)c(OC)n5)c4Cl)cccc32)cc(OC)c1CNC[C@@H](C)O", "note": "[Example 113, cis-3-(((6-(2-chloro-3-(1-(4-((((R)-2-hydroxypropyl)amino)methyl)-3,5-dimethoxyphenyl)-1H-indazol-4-yl)phenyl)-2-methoxypyridin-3-yl)methyl)amino)cyclobutan-1-ol]", "values": [{"measurement": "IC50", "setting": "[1]", "value": "< 200", "unit": "nM"}, {"measurement": "IC50", "setting": "[2]", "value": "< 1", "unit": "nM"}]}, {"compound": "COc1cc(-n2ncc3c(-c4cccc(-c5ccc(CN6CC7(CNC(=O)C7)C6)c(OC)n5)c4Cl)cccc32)cc(OC)c1CNC[C@@H](C)O", "note": "[Example 112, (R)-2-((6-(2-chloro-3-(1-(4-(((2-hydroxypropyl)amino)methyl)-3,5-dimethoxyphenyl)-1H-indazol-4-yl)phenyl)-2-methoxypyridin-3-yl)methyl)-2,6-diazaspiro[3.4]octan-7-one]", "values": [{"measurement": "IC50", "setting": "[1]", "value": "< 200", "unit": "nM"}, {"measurement": "IC50", "setting": "[2]", "value": "< 1", "unit": "nM"}]}, {"compound": "COc1cc(-n2ccc3c(-c4cccc(-c5ccc(CN6CC7(C6)CN(C(C)=O)C7)c(OC)n5)c4Cl)cccc32)cc(OC)c1CNC[C@@H]1CCC(=O)N1", "note": "[Example 32]", "values": [{"measurement": "IC50", "setting": "[1]", "value": "> 2000", "unit": "nM"}, {"measurement": "IC50", "setting": "[2]", "value": "1 to 10", "unit": "nM"}]}, {"compound": "COc1cc(-n2ccc3c(-c4cccc(-c5ccc(CN6CC(C)(O)C6)c(OC)n5)c4Cl)cccc32)cc(OC)c1CN1CC(C)(O)C1", "note": "[Example 28]", "values": [{"measurement": "IC50", "setting": "[1]", "value": "> 2000", "unit": "nM"}, {"measurement": "IC50", "setting": "[2]", "value": "1 to 10", "unit": "nM"}]}, {"compound": "COc1cc(-n2ncc3c(-c4cccc(-c5ccc(CN[C@H]6C[C@@H](O)C6)c(OC)n5)c4Cl)cccc32)cc(OC)c1CN[C@@H](CO)C(N)=O", "note": "[Example 121, (S)-2-((4-(4-(2-chloro-3-(5-(((cis-3-hydroxycyclobutyl)amino)methyl)-6-methoxypyridin-2-yl)phenyl)-1H-indazol-1-yl)-2,6-dimethoxybenzyl)amino)-3-hydroxypropanamide]", "values": [{"measurement": "IC50", "setting": "[1]", "value": "201 to 2000", "unit": "nM"}, {"measurement": "IC50", "setting": "[2]", "value": "< 1", "unit": "nM"}]}, {"compound": "COc1cc(-n2ncc3c(-c4cccc(-c5ccc(CN6CC(C)(O)C6)c(OC)n5)c4Cl)cccc32)cc(OC)c1CNC[C@@H]1CCC(=O)N1", "note": "[Example 54]", "values": [{"measurement": "IC50", "setting": "[1]", "value": "> 2000", "unit": "nM"}, {"measurement": "IC50", "setting": "[2]", "value": "10 to 100", "unit": "nM"}]}, {"compound": "COc1cc(-n2ncc3c(-c4cccc(-c5ccc(CN6CC7(CNC(=O)C7)C6)c(OC)n5)c4Cl)cccc32)cc(OC)c1CN[C@H](C(=O)O)[C@@H](C)O", "note": "[Example 141, (4-(4-(2-chloro-3-(6-methoxy-5-((7-oxo-2,6-diazaspiro[3.4]octan-2-yl)methyl)pyridin-2-yl)phenyl)-1H-indazol-1-yl)-2,6-dimethoxybenzyl)-L-threonine]", "values": [{"measurement": "IC50", "setting": "[1]", "value": "< 200", "unit": "nM"}, {"measurement": "IC50", "setting": "[2]", "value": "< 1", "unit": "nM"}]}, {"compound": "COc1cc(-n2ncc3c(-c4cccc(-c5ccc(CN[C@H]6C[C@@H](O)C6)c(OC)n5)c4Cl)cccc32)ncc1CNC[C@@H](C)O", "note": "[Example 122, cis-3-(((6-(2-chloro-3-(1-(5-((((R)-2-hydroxypropyl)amino)methyl)-4-methoxypyridin-2-yl)-1H-indazol-4-yl)phenyl)-2-methoxypyridin-3-yl)methyl)amino)cyclobutanol]", "values": [{"measurement": "IC50", "setting": "[1]", "value": "201 to 2000", "unit": "nM"}, {"measurement": "IC50", "setting": "[2]", "value": "1 to 10", "unit": "nM"}]}, {"compound": "COc1cc(-n2ncc3c(-c4cccc(-c5ccc(CN[C@H]6C[C@@H](O)C6)c(OC)n5)c4Cl)cccc32)cc(OC)c1CN1CC(C)(O)C1", "note": "[Example 102, 1-(4-(4-(2-chloro-3-(5-(((cis-3-hydroxycyclobutyl)amino)methyl)-6-methoxypyridin-2-yl)phenyl)-1H-indazol-1-yl)-2,6-dimethoxybenzyl)-3-methylazetidin-3-ol]", "values": [{"measurement": "IC50", "setting": "[1]", "value": "< 200", "unit": "nM"}, {"measurement": "IC50", "setting": "[2]", "value": "1 to 10", "unit": "nM"}]}, {"compound": "COc1cc(-n2ncc3c(-c4cccc(-c5ccc(CNC[C@@H]6CCC(=O)N6)c(OC)n5)c4Cl)cccc32)cc(OC)c1CNCC1(C(=O)O)CC1", "note": "[Example 66, (S)-1-(((4-(4-(2-chloro-3-(6-methoxy-5-((((5-oxopyrrolidin-2-yl)methyl)amino)methyl)pyridin-2-yl)phenyl)-1H-indazol-1-yl)-2,6-dimethoxybenzyl)amino)methyl)cyclopropanecarboxylic acid]", "values": [{"measurement": "IC50", "setting": "[1]", "value": "< 200", "unit": "nM"}, {"measurement": "IC50", "setting": "[2]", "value": "< 1", "unit": "nM"}]}, {"compound": "COc1cc(-n2ncc3c(-c4cccc(-c5nc6cc(CN7CC[C@@H](C(=O)O)C7)cc(C#N)c6o5)c4C)cccc32)cc(OC)c1CN1CC[C@H](O)C1", "note": "[Example 155, (R)-1-((7-cyano-2-(3-(1-(4-(((S)-3-hydroxypyrrolidin-1-yl)methyl)-3,5-dimethoxyphenyl)-1H-indazol-4-yl)-2-methylphenyl)benzo[d]oxazol-5-yl)methyl)pyrrolidine-3-carboxylic acid]", "values": [{"measurement": "IC50", "setting": "[1]", "value": "< 200", "unit": "nM"}, {"measurement": "IC50", "setting": "[2]", "value": "< 1", "unit": "nM"}]}, {"compound": "COc1cc(-n2ncc3c(-c4cccc(Nc5nc(C(F)F)nc6cc(CN7CC[C@@H](O)C7)cnc56)c4C)cccc32)cc(OC)c1CN(C)C12CCC(C(=O)O)(CC1)CC2", "note": "[Example 166, (R)-4-((4-(4-(3-((2-(difluoromethyl)-7-((3-hydroxypyrrolidin-1-yl)methyl)pyrido[3,2-d]pyrimidin-4-yl)amino)-2-methylphenyl)-1H-indazol-1-yl)-2,6-dimethoxybenzyl)(methyl)amino)bicyclo[2.2.2]octane-1-carboxylic acid]", "values": [{"measurement": "IC50", "setting": "[1]", "value": "< 200", "unit": "nM"}, {"measurement": "IC50", "setting": "[2]", "value": "< 1", "unit": "nM"}]}, {"compound": "COc1cc(-n2ncc3c(-c4cccc(-c5ccc(CN[C@H]6C[C@@H](O)C6)c(OC)n5)c4Cl)cccc32)cc(OC)c1CN[C@H]1C[C@@H](O)C1", "note": "[Example 101, cis-3-(((6-(2-chloro-3-(1-(4-(((cis-3-hydroxycyclobutyl)amino)methyl)-3,5-dimethoxyphenyl)-1H-indazol-4-yl)phenyl)-2-methoxypyridin-3-yl)methyl)amino)cylobutanol]", "values": [{"measurement": "IC50", "setting": "[1]", "value": "< 200", "unit": "nM"}, {"measurement": "IC50", "setting": "[2]", "value": "< 1", "unit": "nM"}]}]}
